Experimental data reported in patent publication US9776991B2, “Thienomethylpiperazine derivatives as inhibitors of soluble epoxide hydrolase” (SANOFI, priority 2013, dated 2017).
Where a name gives a salt, the structure may show the parent alone.

What follows are molecules tested against recombinant sEH (soluble epoxide hydrolase, EPHX2) (Homo sapiens (Human), UniProt P34913) (assay: biochemical fluorometric sEH inhibition assay with Phome substrate). Conditions: recombinant sEH purified from Sf9 insect cells, 2 nM sEH, 5 μM Phome, 60 minutes at 30° C.
Chain of recombinant sEH (soluble epoxide hydrolase, EPHX2) (P34913 whole entry): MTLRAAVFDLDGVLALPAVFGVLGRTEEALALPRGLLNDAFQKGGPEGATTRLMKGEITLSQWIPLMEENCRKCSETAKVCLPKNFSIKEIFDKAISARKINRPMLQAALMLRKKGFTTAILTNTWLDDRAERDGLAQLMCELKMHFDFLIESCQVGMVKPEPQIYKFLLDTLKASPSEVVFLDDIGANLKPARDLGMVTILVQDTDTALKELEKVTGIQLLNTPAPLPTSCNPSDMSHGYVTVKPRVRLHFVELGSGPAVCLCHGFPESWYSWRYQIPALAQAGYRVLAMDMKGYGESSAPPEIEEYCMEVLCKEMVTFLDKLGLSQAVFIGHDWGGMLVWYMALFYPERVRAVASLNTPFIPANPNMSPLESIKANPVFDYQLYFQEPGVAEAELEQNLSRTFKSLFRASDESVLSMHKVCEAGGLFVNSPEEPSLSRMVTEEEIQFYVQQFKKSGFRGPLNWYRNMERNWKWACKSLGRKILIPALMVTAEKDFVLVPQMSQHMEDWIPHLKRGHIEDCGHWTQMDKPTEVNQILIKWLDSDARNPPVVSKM
Method: Compounds were tested in a biochemical screening assay using recombinant sEH purified from Sf9 insect cells and an artificial substrate, (3-phenyl-oxiranyl)-acetic acid cyano-(6-methoxy-naphtalen-2-yl)-methyl ester, Phome. The biochemical assay was performed in analogy to a fluorometric described in the literature (P. D. Jones et al., Anal. Biochem. 2005, 343, 66-75). The assay principle bases on the sEH-catalyzed hydrolysis of an artificial α-cyano-ester substrate. O-deacetylation liberates a cyanohydrin intermediate that rapidly decomposes to the highly fluorescent 6-methoxy-2-naphtaldehyde. To discriminate sample autofluorescence, the assay was carried out as a kinetic measurement with two time points. The first measurement is performed immediately before addition of the substrate and the […] measurement is done after completion of the assay. The assay format is either in 96- or in 384-well format.
Details of the assay using a 96-well plate format are described below. 40 μl recombinant sEH enzyme and 5 μl test compound are pre-incubated for 15 minutes at 30° C. Following pre-incubation, the reaction is started by addition of 5 μl Phome. The assay mixture containing 2 nM final sEH concentration, test compound ranging in a concentration from 0.0001-10 μM and 5 μM Phome is incubated for 60 minutes at 30° C.
Fluorescence is measured with any suitable detector for instance a TECAN Safire or Tecan Ultra at […]. % inhibition of recombinant sEH activity is used for calculation of corresponding IC50 values as illustrated and described in the examples.
The NCBI gene bank reference sequence with the accession number NM_001979 for EPHX2/sEH was applied for recombinant protein production:
The following commercially available materials have been used: • Incubation reagent: 25 mM Hepes (Sigma-Aldrich, Cat. No H-3375), 0.01% bovine albumin (Sigma-Aldrich Cat. No PA9205) • Substrate: 3-Phenyl-oxiranyl)-acetic acid cyano-(6-methoxy-naphtalen-2-yl)-methyl ester, Phome (Biozol Cat. No 10003134) • Microtiter plates: 96-well plates (Greiner Cat. No 655180; Costar Cat. No 3915)

| Compound | IC50 [nM] |
| --- | --- |
| CC(C)(O)CC(=O)N1CCN(Cc2ccc(C(=O)NCc3ccccc3OC(F)(F)F)s2)CC1 [Example 128] | 1.73 |
| O=C(NCc1ccccc1OC(F)(F)F)c1ccc(CN2CCN(C(=O)c3nc(F)ccc3F)CC2)s1 [Example 129] | 1.73 |
| Cn1cccc1C(=O)N1CCN(Cc2ccc(C(=O)NCc3ccc(Cl)cc3Cl)s2)CC1 [Example 130] | 1.73 |
| O=C(NCc1ccccc1OC(F)(F)F)c1ccc(CN2CCN(C(=O)c3cccc(O)n3)CC2)s1 [Example 132] | 2.09 |
| CNC(=O)c1cccnc1N1CCN(Cc2ccc(C(=O)NCc3ccccc3OC(F)(F)F)s2)CC1 [Example 135] | 2.14 |
| CSCCC(=O)N1CCN(Cc2ccc(C(=O)NCc3ccccc3OC(F)(F)F)s2)CC1 [Example 137] | 1.76 |
| CC(C(=O)N1CCN(Cc2ccc(C(=O)NCc3ccccc3OC(F)(F)F)s2)CC1)N(C)C (stereo not shown) [Example 138] | 6.27 |
| COc1cc(CNC(=O)c2ccc(CN3CCN(C(=O)c4c(C)n[nH]c4C)CC3)s2)ccn1 [Example 139, 5-[4-(3,5-Dimethyl-1H-pyrazole-4-carbonyl)-piperazin-1-ylmethyl]-thiophene-2-carboxylic acid (2-methoxy-pyridin-4-ylmethyl)-amide trifluoroacetate] | 2.85 |
| COCCCC(=O)N1CCN(Cc2ccc(C(=O)NCc3ccccc3OC(F)(F)F)s2)CC1 [Example 140] | 1.81 |
| O=C(NCc1ccccc1OC(F)(F)F)c1ccc(CN2CCN(C(=O)C3CC3)CC2)s1 [Example 141] | 1.86 |
| O=C(NCc1ccccc1OC(F)(F)F)c1ccc(CN2CCN(c3nncs3)CC2)s1 [Example 142] | 1.82 |
| NC(CF)C(=O)N1CCN(Cc2ccc(C(=O)NCc3ccccc3OC(F)(F)F)s2)CC1 (stereo not shown) [Example 144] | 1.79 |
| NC1(C(=O)N2CCN(Cc3ccc(C(=O)NCc4ccccc4OC(F)(F)F)s3)CC2)CCOCC1 [Example 145] | 1.88 |
| Cc1cc(C(=O)NCc2ccccc2OC(F)(F)F)sc1CN1CCN(C(=O)c2c(C)cc(=O)oc2C)CC1 [Example 148] | 1.87 |
| COc1cc(CNC(=O)c2ccc(CN3CCN(C(=O)c4nc(F)ccc4F)CC3)s2)ccn1 [Example 149, 5-[4-(3,6-Difluoro-pyridine-2-carbonyl)-piperazin-1-ylmethyl]-thiophene-2-carboxylic acid (2-methoxy-pyridin-4-ylmethyl)-amide] | 8.2 |
| Cc1cc(=O)oc(C)c1C(=O)N1CCN(Cc2ccc(C(=O)NCc3ccccc3OC(F)F)s2)CC1 [Example 150] | 1.87 |

| Compound | IC50 [nM] |
| --- | --- |
| O=C(NCc1ccccc1C(F)(F)F)c1ccc(CN2CCN(C(=O)c3cnn4ccccc34)CC2)s1 [Example 151] | 1.97 |
| O=C(NCc1ccc(Cl)cc1Cl)c1ccc(CN2CCN(C(=O)[C@@H]3C[C@H]3c3ccccc3)CC2)s1 [Example 153] | 2.56 |
| CC(O)C(=O)N1CCN(Cc2ccc(C(=O)NCc3ccccc3OC(F)(F)F)s2)CC1 (stereo not shown) [Example 155] | 1.99 |
| NC1(C(=O)N2CCN(Cc3ccc(C(=O)NCc4ccccc4OC(F)(F)F)s3)CC2)CCCCC1 [Example 157] | 2.08 |
| COCc1cc(O)nc(N2CCN(Cc3ccc(C(=O)NCc4ccccc4OC(F)(F)F)s3)CC2)n1 [Example 158] | 2.04 |
| Cc1cc(C(=O)NCCC(C)(C)C)sc1CN1CCN(C(=O)c2c(C)cc(=O)oc2C)CC1 [Example 159] | 0.8 |
| Cc1noc(C)c1C(=O)N1CCN(Cc2ncc(C(=O)NCc3ccc(Cl)cc3Cl)s2)CC1 [Example 160] | 1.41 |
| CC1(C)OC(=O)CC1C(=O)N1CCN(Cc2ncc(C(=O)NCc3ccc(Cl)cc3Cl)s2)CC1 (stereo not shown) [Example 161] | 6.11 |
| O=C(NCc1ccc(Cl)cc1Cl)c1cnc(CN2CCN(C(=O)CCO)CC2)s1 [Example 163] | 25.2 |
| CSCCC(=O)N1CCN(Cc2ncc(C(=O)NCc3ccc(Cl)cc3Cl)s2)CC1 [Example 164] | 11.4 |
| Cc1noc(C)c1CC(=O)N1CCN(Cc2ncc(C(=O)NCc3ccc(Cl)cc3Cl)s2)CC1 [Example 165] | 9.61 |
| CCC(C)(O)C(=O)N1CCN(Cc2ncc(C(=O)NCc3ccc(Cl)cc3Cl)s2)CC1 (stereo not shown) [Example 167] | 12.2 |
| O=C(NCc1ccc(Cl)cc1Cl)c1cnc(CN2CCN(C(=O)CN3CCCC3=O)CC2)s1 [Example 168] | 77.9 |
| CC(C)(O)C(=O)N1CCN(Cc2ncc(C(=O)NCc3ccc(Cl)cc3Cl)s2)CC1 [Example 172] | 10.8 |
| CC(C)(CO)C(=O)N1CCN(Cc2ncc(C(=O)NCc3ccc(Cl)cc3Cl)s2)CC1 [Example 176] | 13.4 |
| O=C(NCc1ccc(Cl)cc1Cl)c1cnc(CN2CCN(C(=O)c3ccc[nH]c3=O)CC2)s1 [Example 178] | 58.6 |

Now from value to molecule:

| IC50 [nM] | Compound |
| --- | --- |
| 2.13 | O=C(NCc1ccc(Cl)cc1Cl)c1ccc(CN2CCN(C(=O)c3ccccc3F)CC2)s1 [Example 131] |
| 2.14 | NC1(C(=O)N2CCN(Cc3ccc(C(=O)NCc4ccc(Cl)cc4Cl)s3)CC2)CCOCC1 [Example 133] |
| 2.15 | COc1ccc(CNC(=O)c2ccc(CN3CCN(C)C(=O)C3)s2)c(OC(F)(F)F)c1 [Example 134] |
| 2.13 | O=C(NCc1ccccc1OC(F)(F)F)c1ccc(CN2CCN(c3ccc(O)nn3)CC2)s1 [Example 136] |
| 1.85 | NC1(C(=O)N2CCN(Cc3ccc(C(=O)NCc4ccccc4OC(F)(F)F)s3)CC2)CCC1 [Example 143] |
| 1.94 | COc1ccc(CNC(=O)c2ccc(CN3CCN(c4ccc(CO)cn4)CC3)s2)c(OC(F)(F)F)c1 [Example 146] |
| 1.96 | O=C(NCc1ccccc1OC(F)(F)F)c1ccc(CN2CCN(C(=O)C3COCCO3)CC2)s1 (stereo not shown) [Example 147] |
| 2.07 | Cc1ccc(C(=O)N2CCN(Cc3ccc(C(=O)NCc4ccccc4C(F)(F)F)s3)CC2)s1 [Example 152] |
| 2.05 | Cc1ccc(C(=O)N2CCN(Cc3ccc(C(=O)NCc4ccc(Cl)cc4Cl)s3)CC2)s1 [Example 154] |
| 2 | O=C(NCc1ccccc1OC(F)(F)F)c1ccc(CN2CCN(C(=O)CN3CCOC3=O)CC2)s1 [Example 156] |
| 12.2 | Cc1cc(=O)oc(C)c1C(=O)N1CCN(Cc2ncc(C(=O)NCc3ccc(Cl)cc3Cl)s2)CC1 [Example 162] |
| 21.3 | COCCCC(=O)N1CCN(Cc2ncc(C(=O)NCc3ccc(Cl)cc3Cl)s2)CC1 [Example 166] |
| 8.76 | CC(C(=O)N1CCN(Cc2ncc(C(=O)NCc3ccc(Cl)cc3Cl)s2)CC1)N1CCCC1=O (stereo not shown) [Example 169] |
| 18 | O=C(NCc1ccc(Cl)cc1Cl)c1cnc(CN2CCN(C(=O)C3COCCO3)CC2)s1 (stereo not shown) [Example 170] |
| 15.8 | O=C(NCc1ccc(Cl)cc1Cl)c1cnc(CN2CCN(C(=O)C3CC3)CC2)s1 [Example 171] |
| 33.4 | COCCC(=O)N1CCN(Cc2ncc(C(=O)NCc3ccc(Cl)cc3Cl)s2)CC1 [Example 173] |
| 14.8 | Cc1cccc(C(=O)N2CCN(Cc3ncc(C(=O)NCc4ccc(Cl)cc4Cl)s3)CC2)n1 [Example 174] |
| 20.4 | O=C(NCc1ccc(Cl)cc1Cl)c1cnc(CN2CCN(C(=O)c3cccc(O)n3)CC2)s1 [Example 175] |
| 91.1 | CC(C(=O)N1CCN(Cc2ncc(C(=O)NCc3ccc(Cl)cc3Cl)s2)CC1)N(C)C (stereo not shown) [Example 177, 2-[4-(2-Dimethylamino-propionyl)-piperazin-1-ylmethyl]-thiazole-5-carboxylic acid 2,4-dichloro-benzylamide] |
| 24.1 | CC[C@@H](O)C(=O)N1CCN(Cc2ncc(C(=O)NCc3ccc(Cl)cc3Cl)s2)CC1 [Example 179] |
